Measurements as given in patent publication US20020103105A1, “Use of selective dopamine D4 receptor agonists for treating sexual dysfunction” (priority 2000, published 2002).
Several values for one entry are separate records, joined by “and”; a condition that tells them apart may be missing. Equal values may be shown once. Read-outs that look alike come from different tables or passages of the source.

How the values were obtained:
[1] = tested on: emesis in male Fitch ferrets; test: Emesis model in ferrets; type: in vivo; conditions: ferret, subcutaneous; for Incidence (%) of emesis: 90 minutes observation; for induction of emesis (in words): all doses tested
Experimental: Male Fitch ferrets (body weights 1.0-1.5 kg) were fasted overnight before experimentation. Animals were placed individually in observation cages following subcutaneous administration of drug and observed for drug-induced nausea and emesis for a period of 90 minutes following drug injection. Nausea was characterized by behaviors such as licking, gagging, backing, head burying, and intense abdominal grooming. Emesis was usually preceded by these behaviors and was characterized by rhythmic abdominal contractions which were associated with vomiting or retching movement. The number of ferrets induced to emesis was recorded and expressed as incidence (%) in Tables 5-7.

dopamine D2 receptor = biological target: T1, dopamine D2 receptor (Homo sapiens, UniProt P14416); test: Dopamine D2 binding assay ([3H]-spiperone, membranes of transfected A9L cells, run by Cerep); conditions: recombinant human D2, [3H]-spiperone 0.3 nM
T1 construct: host or cells: A9L cells (membranes)
Experimental: (§1) The dopamine D2 and D4 binding assays, used to determine binding affinities (Ki) illustrated in Table 1, were conducted according to standard procedures known to those in the art and are summarized herein.
(§2) Briefly, receptor binding assays at the dopamine D2 and D4 receptors were carried out in membranes from cell lines expressing the recombinant human subtypes. […] Specific binding was defined as the difference between total binding and nonspecific binding. Ki values were determined using the Cheng-Prusoff equation and are illustrated in Table 1.

[2] = tested on: penile erection in Wistar rats; test: Rat penile erection model; type: in vivo; conditions: subcutaneous; for Incidence (%) of penile erections: 60 minutes observation; for facilitation of penile erections in rats (in words, with effective dose range): versus vehicle
Experimental: Wistar rats were used as a primary animal model to study penile erection in vivo. All experiments were carried out between 9:00 AM and 3:00 PM in a diffusely illuminated testing room with a red light. The rats were weighed and allowed to adapt to the testing room for 60 minutes before the beginning of experiments. Rats were placed in individual transparent cages (20×30×30 cm) after subcutaneous drug injection. The number of penile erections was recorded by direct observation for a period of 60 minutes after drug dosing.

dopamine D4 receptor [3] = biological target: T2, dopamine D4 receptor (Homo sapiens, UniProt P21917); test: Dopamine D4 binding assay ([3H]-spiperone, membranes of transfected CHO cells, run by Cerep); parameters: host or cells: CHO cells (membranes); conditions: recombinant human D4, [3H]-spiperone 0.5 nM
T2 sequence (P21917 1-419): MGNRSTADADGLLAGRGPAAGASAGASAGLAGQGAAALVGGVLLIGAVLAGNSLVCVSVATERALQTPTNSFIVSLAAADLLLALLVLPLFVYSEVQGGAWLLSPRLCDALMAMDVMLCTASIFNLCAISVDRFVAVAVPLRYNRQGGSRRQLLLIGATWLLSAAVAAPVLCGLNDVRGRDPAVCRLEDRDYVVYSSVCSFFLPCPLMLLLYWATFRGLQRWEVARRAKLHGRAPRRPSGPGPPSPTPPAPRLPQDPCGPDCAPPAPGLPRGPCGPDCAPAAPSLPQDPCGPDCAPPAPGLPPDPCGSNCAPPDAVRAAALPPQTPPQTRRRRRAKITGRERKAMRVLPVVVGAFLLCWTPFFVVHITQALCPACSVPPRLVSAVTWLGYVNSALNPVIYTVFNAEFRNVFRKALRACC
Experimental: as §1, §2

human D4 receptor [4] = biological target: T3, human D4 receptor (Homo sapiens, UniProt P21917); test: FLIPR calcium assay in HEK293 cells expressing human D4 receptor co-transfected with Gqo5 chimera; type: cell-based; parameters: expressed in transfected cells; host or cells: HEK293 cells, stably transfected, with Gqo5 chimera
T3 sequence (P21917 1-419): T2 sequence (P21917 1-419)
Experimental: The FLIPR assay is a functional assay that can be conducted in HEK293 cells expressing the human D4 receptor, co-transfected with the Gqo5 protein chimera. Expression of the G-protein chimera allows for the mobilization of intracellular calcium after activation of the D4 receptor. Cells are prepared by plating the stably transfected D4-HEK293 cells into each well of 96 well plates. Cells are cultured until they reach confluence (approximately 48 hours). Media is removed from the plate and media containing the fluorescent calcium detecting dye Fluo-4 is added. Cells are incubated at room temperature for one hour. Cells are then washed three times with phosphate buffered saline and 150 μl PBS is added. Compounds to be tested are diluted in a second 96-well plate. The plate containing the cells is placed in fluorescent plate reader (FLIPR) and the reaction is begun by adding 50 μl of compound solution to all the wells simultaneously. Fluorescent signal is measured for 60 seconds sampling at 1 second intervals. The signal derived from 10 μM dopamine is used as 100% and a compound dose-response curve is normalized to determine the percent efficacy relative to dopamine. Dose response curves are analyzed to determine EC50 (nM).

human D4 receptor [5] = biological target: T3, human D4 receptor; parameters: expressed in transfected cells; conditions: CHO cells, read-out: EC50 inhibition of forskolin-stimulated cAMP accumulation; cited from earlier work
dopamine D4 receptor [6] = biological target: T2, dopamine D4 receptor; conditions: cited literature; cited from earlier work

T1 sequence (P14416 whole entry): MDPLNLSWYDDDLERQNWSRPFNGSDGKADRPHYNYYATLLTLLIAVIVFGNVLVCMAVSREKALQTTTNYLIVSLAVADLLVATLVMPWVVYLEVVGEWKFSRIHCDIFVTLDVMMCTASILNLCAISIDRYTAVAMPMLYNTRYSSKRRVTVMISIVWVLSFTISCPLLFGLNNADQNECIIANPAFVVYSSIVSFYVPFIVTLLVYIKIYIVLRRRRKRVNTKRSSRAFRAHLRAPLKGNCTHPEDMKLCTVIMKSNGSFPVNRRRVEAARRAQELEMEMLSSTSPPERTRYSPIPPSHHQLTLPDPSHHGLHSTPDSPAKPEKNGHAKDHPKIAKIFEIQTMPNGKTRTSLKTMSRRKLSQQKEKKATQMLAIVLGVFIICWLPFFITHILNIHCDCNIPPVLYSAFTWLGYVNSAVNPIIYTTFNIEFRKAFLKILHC

| SMILES | Incidence (%) of emesis ([1]; 0.1 μmol/kg) [%] | Incidence (%) of emesis ([1]; 0.3 μmol/kg) | Incidence (%) of emesis ([1]; 1.0 μmol/kg) [%] | Incidence (%) of emesis ([1]; 3.0 μmol/kg) [%] | induction of emesis (in words) [1] | Ki (dopamine D2 receptor) [nM] | Incidence (%) of penile erections ([2]; 0.03 μmol/kg) [%] | Incidence (%) of penile erections ([2]; 0.1 μmol/kg) | Incidence (%) of penile erections ([2]; 0.3 μmol/kg) [%] | Incidence (%) of penile erections ([2]; 1.0 μmol/kg) [%] | facilitation of penile erections in rats (in words, with effective dose range) [2] | other results |
| --- | --- | --- | --- | --- | --- | --- | --- | --- | --- | --- | --- | --- |
| Cc1cccc(C(=O)NCN2CCN(c3ccccc3C#N)CC2)c1 [N-{[4-(2-cyanophenyl)-1-piperazinyl]methyl}-3-methylbenzamide] | 0 | 0% | 0 | 0 | did not induce emesis at any dose | > 1000 | 42 | 71% | 79 | 68 | significant facilitation of penile erections in rats for doses 0.1 μmol/kg to 1.0 μmol/kg | – |
| Fc1ccc2[nH]c(CN3CCN(c4ccccn4)CC3)cc2c1 [5-fluoro-2-{[4-(2-pyridinyl)-1-piperazinyl]methyl}-1H-indole] | 0 | 0% | 0 | 0 | did not induce emesis at any dose | > 1000 | – | – | 60 | 90 | significant facilitation of penile erections in rats for doses 1.0 μmol/kg and 3.0 μmol/kg | Ki (dopamine D4 receptor [3]): 2.6 nM; EC50 (human D4 receptor [4]; D4-HEK293 cells, Gqo5): 32 nM; Emax (human D4 receptor [4]; HEK293, relative to 10 μM dopamine = 100%, read-out: Maximum Response FLIPR): 46%; agonism at D4 receptor in FLIPR assay (in words) (human D4 receptor [4]; Table A data): agonists; EC50 (human D4 receptor [5]): 5.8 nM; Incidence (%) of penile erections ([2]; 3.0 μmol/kg): 90%; Ki (dopamine D4 receptor [6]): 6 nM; selectivity for dopamine D4 receptor compared to D2 receptor (literature) (dopamine D4 receptor [6]): > 100 fold |
| CN1CCc2cccc3c2C1Cc1ccc(O)c(O)c1-3 (stereo not shown) [Apomorphine, 5,6,6a,7-tetrahydro-6-methyl-4H-dibenzo[de,g]quinoline-10,11-diol] | 32 | 83% and 82% | 48 | 32 | induced emesis at all doses | – | 69 | 86% and 90% and 92% | 66 | 25 | significant facilitation of penile erections in rats for doses 0.01 μmol/kg to 0.3 μmol/kg | Incidence (%) of emesis ([1]; 0.3 μmol/kg, listed as apomorphine): 83%; Incidence (%) of emesis ([1]; 10.0 μmol/kg): 32%; Incidence (%) of penile erections ([2]; 0.003 μmol/kg): 28%; Incidence (%) of penile erections ([2]; 0.01 μmol/kg): 56%; Incidence (%) of penile erections ([2]; 0.1 μmol/kg, listed as apomorphine): 86% and 90% |
